# “And” between values parts separate entries of the source, which are not always exact repeats. Equal values may be shown once.
# Assays:
# [1] = target: T1, Dyrk1A (Homo sapiens, UniProt Q13627); experiment: Dyrk1A kinase assay (32P-ATP, Woodtide); format: biochemical; conditions: for IC50: 100 µM ATP; for inhibition at 5 µM: read-out: percentage of inhibition Dyrk1A
# T1 construct: encoding the catalytic domain of human Dyrk1A; thrombin cleavage site (N); made in house; host or cells: Escherichia coli BL21(DE3) with pRARE
# [2] = target: T2, Dyrk1B (Homo sapiens, UniProt Q9Y463); experiment: Dyrk1B kinase assay (32P-ATP, Woodtide); format: biochemical; conditions: for IC50: 100 µM ATP; for inhibition at 5 µM: read-out: percentage of inhibition Dyrk1B; for Kd: calculated with Cheng-Prussoff equation, KM ATP 59 µM
# T2 construct: purchased Life Technologies PV4649 (LOT # 877059G)
# T2 sequence (Q9Y463 whole entry): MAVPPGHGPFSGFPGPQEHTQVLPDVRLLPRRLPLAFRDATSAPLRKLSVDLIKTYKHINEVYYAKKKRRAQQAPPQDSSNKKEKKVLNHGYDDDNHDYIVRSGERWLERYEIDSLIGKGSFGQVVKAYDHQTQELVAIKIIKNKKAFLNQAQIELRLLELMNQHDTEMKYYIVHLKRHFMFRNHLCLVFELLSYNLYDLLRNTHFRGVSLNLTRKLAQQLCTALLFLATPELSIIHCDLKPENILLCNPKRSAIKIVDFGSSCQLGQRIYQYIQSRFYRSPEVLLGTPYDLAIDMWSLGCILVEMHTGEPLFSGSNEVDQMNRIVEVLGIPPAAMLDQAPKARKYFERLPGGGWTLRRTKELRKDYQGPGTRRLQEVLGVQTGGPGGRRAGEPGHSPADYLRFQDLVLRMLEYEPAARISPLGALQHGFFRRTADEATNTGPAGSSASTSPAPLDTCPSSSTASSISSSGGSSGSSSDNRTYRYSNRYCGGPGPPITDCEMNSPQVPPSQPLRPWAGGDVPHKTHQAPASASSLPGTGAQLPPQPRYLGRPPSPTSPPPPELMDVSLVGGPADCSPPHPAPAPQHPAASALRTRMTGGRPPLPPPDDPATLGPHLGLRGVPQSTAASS
# [3] = target: T3, Dyrk2 (Homo sapiens, UniProt Q92630); experiment: Dyrk2 kinase assay (32P-ATP, Woodtide); format: biochemical; conditions: for IC50: 100 µM ATP, read-out: IC50 Dyrk2; for inhibition at 5 µM: read-out: percentage of inhibition Dyrk2
# T3 construct: made in house; host or cells: Escherichia coli BL21(DE3) with pRARE; plasmid pGEX-2TK-Dyrk2 (gift from W. Becker, Aachen)
# T3 sequence (Q92630 1-601): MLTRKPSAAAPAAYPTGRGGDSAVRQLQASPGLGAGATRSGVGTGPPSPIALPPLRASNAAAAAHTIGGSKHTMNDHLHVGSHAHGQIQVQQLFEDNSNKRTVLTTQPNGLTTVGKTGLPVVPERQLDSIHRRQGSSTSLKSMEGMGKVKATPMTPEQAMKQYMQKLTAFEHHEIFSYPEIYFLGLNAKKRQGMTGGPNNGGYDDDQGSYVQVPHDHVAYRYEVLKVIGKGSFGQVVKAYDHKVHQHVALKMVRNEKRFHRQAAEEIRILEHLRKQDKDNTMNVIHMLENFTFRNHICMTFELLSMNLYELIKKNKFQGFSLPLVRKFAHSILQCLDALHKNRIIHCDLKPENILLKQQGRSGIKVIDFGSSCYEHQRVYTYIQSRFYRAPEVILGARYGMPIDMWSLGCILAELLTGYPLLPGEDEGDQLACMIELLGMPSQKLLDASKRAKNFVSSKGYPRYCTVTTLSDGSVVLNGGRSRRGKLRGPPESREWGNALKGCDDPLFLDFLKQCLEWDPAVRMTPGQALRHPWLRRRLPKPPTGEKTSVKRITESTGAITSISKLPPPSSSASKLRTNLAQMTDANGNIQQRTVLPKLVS
# [4] = target: T4, CK2α (Homo sapiens, UniProt P68400); experiment: CK2α kinase assay (counter screen); format: biochemical; conditions: for inhibition at 5 µM: read-out: percentage of inhibition CK2α
# T4 construct: purchased Life Technologies (Invitrogen SelectScreen); Dyrk1A, Dyrk2 and CK2α in-house or gifts
# T4 sequence (P68400 whole entry): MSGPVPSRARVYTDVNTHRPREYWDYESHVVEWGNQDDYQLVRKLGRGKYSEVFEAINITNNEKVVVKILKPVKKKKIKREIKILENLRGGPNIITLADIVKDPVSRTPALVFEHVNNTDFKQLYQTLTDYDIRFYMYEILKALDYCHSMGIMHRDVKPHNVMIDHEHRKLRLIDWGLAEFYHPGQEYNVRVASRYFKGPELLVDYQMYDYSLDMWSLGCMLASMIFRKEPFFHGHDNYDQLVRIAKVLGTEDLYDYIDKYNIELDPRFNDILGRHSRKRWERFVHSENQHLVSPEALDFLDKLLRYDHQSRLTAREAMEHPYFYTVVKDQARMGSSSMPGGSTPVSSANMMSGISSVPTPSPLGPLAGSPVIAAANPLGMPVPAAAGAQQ
# Method: Dyrk1A, Dyrk1B, Dyrk2, CK2α and Clk1 kinase reactions were performed in a reaction buffer containing 50 mM Tris/HCl, pH 7.4, 0.1 mM EGTA, 0.5 mM DTT, 10 mM MgCl2, 100 µM ATP and 0.33 µM [γ-^32ATP] as well as the appropriate substrate peptides, which were 100 µM Woodtide for the Dyrk isoforms ([…]-NH2), 60 µM CK2 substrate peptide ([…]-NH2, from Millipore) for CK2α or RS repeat peptide ([…]) for Clk1. The CK2α protein was a kind gift of M. Montenarh (Homburg). The kinase reactions were performed at 30°C for 15 min and terminated by spotting 5 µL of the reaction mixture onto a P81 phosphocellulose membrane (Whatman). The membrane was washed four times with 0.3% phosphoric acid and one time with acetone and dried. The dry membrane was exposed in a cassette to a Phosphor Screen Imaging Plate (FujiFilm) and the signals detected by scanning of the imaging plate in a Fuji FLA-3000 PhosphoImager. The spots were quantified using AIDA software (Raytest, Version 3.52) to determine the activities of the kinases in the assay reactions. […] IC50 values were calculated by fitting the data with Origin Pro 8.6 (OriginLabs). The calculated IC50 values are representative of at least two independent determinations.
# [5] = target: T5, HIPK1 (Homo sapiens, UniProt Q86Z02); experiment: Selectivity panel HIPK1; format: biochemical; conditions: 5 µM inhibitor
# T5 construct: purchased Life Technologies (Invitrogen SelectScreen); Dyrk1A, Dyrk2 and CK2α in-house or gifts
# T5 sequence (Q86Z02 whole entry): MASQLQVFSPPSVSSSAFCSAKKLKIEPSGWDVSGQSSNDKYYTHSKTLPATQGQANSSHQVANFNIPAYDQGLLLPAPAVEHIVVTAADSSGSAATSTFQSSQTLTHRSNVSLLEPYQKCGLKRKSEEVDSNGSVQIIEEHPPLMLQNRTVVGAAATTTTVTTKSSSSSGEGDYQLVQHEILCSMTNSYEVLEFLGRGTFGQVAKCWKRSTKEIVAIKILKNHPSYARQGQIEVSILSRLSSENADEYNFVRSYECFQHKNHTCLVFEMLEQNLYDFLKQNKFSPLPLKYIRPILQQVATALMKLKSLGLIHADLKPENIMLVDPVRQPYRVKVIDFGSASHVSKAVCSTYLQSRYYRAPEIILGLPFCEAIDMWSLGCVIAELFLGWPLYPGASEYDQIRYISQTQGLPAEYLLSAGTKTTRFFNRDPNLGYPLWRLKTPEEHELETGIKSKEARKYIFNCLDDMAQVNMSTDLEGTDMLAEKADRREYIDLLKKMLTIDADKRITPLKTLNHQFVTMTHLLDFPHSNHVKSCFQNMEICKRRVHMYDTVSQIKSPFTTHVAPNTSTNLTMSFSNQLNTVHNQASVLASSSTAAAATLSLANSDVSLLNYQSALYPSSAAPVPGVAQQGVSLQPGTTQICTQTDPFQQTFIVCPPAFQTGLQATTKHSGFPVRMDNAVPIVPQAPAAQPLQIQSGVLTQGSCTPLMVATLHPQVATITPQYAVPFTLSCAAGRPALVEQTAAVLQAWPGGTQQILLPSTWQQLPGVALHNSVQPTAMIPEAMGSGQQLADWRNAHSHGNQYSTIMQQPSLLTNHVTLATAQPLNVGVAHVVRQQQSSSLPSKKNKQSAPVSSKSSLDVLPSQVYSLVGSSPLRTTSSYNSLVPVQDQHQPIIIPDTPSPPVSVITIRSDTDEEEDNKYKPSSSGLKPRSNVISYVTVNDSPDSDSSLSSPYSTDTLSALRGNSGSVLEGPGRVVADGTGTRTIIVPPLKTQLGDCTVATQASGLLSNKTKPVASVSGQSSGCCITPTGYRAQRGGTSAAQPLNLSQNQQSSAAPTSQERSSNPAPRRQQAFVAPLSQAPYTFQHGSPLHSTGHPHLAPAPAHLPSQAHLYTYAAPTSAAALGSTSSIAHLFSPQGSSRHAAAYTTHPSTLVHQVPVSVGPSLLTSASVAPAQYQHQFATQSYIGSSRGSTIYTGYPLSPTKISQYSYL
# [6] = target: T6, GSK3β (Homo sapiens, UniProt P49841); experiment: Selectivity panel GSK3β; format: biochemical; conditions: 5 µM inhibitor
# T6 construct: purchased Life Technologies (Invitrogen SelectScreen); Dyrk1A, Dyrk2 and CK2α in-house or gifts
# T6 sequence (P49841 whole entry): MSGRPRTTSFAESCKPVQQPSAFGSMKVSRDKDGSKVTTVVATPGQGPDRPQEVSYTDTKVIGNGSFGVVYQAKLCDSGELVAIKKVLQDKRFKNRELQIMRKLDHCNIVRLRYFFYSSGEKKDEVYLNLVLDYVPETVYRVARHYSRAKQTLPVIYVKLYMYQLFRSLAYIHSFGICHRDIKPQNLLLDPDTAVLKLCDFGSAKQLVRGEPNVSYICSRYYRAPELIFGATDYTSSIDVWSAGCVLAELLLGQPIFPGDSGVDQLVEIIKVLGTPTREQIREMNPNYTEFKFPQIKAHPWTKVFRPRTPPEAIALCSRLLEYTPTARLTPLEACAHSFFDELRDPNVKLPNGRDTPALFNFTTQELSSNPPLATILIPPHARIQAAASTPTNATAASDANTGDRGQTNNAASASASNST
# [7] = target: T7, PRKD2 (PKD2) (Homo sapiens, UniProt Q9BZL6); experiment: Selectivity panel PRKD2; format: biochemical; conditions: 5 µM inhibitor
# T7 construct: purchased Life Technologies (Invitrogen SelectScreen); Dyrk1A, Dyrk2 and CK2α in-house or gifts
# T7 sequence (Q9BZL6 1-878): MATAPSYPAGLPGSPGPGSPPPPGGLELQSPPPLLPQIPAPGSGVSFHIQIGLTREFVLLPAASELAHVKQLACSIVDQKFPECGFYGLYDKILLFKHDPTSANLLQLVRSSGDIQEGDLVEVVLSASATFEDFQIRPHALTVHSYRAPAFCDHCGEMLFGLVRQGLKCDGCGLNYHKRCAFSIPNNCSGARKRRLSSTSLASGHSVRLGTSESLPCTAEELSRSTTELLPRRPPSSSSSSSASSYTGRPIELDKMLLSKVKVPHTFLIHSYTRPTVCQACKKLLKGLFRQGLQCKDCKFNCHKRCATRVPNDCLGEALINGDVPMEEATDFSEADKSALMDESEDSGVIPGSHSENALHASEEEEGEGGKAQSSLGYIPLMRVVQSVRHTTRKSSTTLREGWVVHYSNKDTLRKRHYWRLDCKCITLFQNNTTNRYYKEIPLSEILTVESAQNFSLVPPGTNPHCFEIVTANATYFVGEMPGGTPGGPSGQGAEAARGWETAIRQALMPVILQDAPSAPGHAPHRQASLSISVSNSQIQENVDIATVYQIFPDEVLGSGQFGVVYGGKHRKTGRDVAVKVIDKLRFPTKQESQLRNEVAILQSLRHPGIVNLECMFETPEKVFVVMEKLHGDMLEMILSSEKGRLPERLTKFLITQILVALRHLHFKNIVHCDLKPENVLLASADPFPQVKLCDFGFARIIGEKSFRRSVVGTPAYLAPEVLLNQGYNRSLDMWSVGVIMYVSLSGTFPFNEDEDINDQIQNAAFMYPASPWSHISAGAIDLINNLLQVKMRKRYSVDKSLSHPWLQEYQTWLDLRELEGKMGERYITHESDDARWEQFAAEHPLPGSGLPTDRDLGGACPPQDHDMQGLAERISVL
# [8] = target: T8, Ck1δ (Homo sapiens, UniProt P48730); experiment: Selectivity panel Ck1δ; format: biochemical; conditions: 5 µM inhibitor
# T8 construct: purchased Life Technologies (Invitrogen SelectScreen); Dyrk1A, Dyrk2 and CK2α in-house or gifts
# T8 sequence (P48730 whole entry): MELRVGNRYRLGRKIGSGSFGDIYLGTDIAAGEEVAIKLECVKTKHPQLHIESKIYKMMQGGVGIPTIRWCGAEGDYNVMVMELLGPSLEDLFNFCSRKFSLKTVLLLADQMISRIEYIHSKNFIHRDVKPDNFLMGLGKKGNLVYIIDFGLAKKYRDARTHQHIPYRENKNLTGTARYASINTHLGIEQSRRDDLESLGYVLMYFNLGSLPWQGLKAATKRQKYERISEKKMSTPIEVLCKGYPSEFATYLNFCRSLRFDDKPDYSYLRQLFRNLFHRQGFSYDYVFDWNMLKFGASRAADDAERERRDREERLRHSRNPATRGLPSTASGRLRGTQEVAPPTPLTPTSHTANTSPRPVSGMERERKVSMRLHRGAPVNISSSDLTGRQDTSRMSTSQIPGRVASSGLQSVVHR
# [9] = target: T9, EGFR (Homo sapiens, UniProt P00533); experiment: Selectivity panel EGFR; format: biochemical; conditions: 5 µM inhibitor
# T9 construct: purchased Life Technologies (Invitrogen SelectScreen); Dyrk1A, Dyrk2 and CK2α in-house or gifts
# T9 sequence (P00533 25-1210): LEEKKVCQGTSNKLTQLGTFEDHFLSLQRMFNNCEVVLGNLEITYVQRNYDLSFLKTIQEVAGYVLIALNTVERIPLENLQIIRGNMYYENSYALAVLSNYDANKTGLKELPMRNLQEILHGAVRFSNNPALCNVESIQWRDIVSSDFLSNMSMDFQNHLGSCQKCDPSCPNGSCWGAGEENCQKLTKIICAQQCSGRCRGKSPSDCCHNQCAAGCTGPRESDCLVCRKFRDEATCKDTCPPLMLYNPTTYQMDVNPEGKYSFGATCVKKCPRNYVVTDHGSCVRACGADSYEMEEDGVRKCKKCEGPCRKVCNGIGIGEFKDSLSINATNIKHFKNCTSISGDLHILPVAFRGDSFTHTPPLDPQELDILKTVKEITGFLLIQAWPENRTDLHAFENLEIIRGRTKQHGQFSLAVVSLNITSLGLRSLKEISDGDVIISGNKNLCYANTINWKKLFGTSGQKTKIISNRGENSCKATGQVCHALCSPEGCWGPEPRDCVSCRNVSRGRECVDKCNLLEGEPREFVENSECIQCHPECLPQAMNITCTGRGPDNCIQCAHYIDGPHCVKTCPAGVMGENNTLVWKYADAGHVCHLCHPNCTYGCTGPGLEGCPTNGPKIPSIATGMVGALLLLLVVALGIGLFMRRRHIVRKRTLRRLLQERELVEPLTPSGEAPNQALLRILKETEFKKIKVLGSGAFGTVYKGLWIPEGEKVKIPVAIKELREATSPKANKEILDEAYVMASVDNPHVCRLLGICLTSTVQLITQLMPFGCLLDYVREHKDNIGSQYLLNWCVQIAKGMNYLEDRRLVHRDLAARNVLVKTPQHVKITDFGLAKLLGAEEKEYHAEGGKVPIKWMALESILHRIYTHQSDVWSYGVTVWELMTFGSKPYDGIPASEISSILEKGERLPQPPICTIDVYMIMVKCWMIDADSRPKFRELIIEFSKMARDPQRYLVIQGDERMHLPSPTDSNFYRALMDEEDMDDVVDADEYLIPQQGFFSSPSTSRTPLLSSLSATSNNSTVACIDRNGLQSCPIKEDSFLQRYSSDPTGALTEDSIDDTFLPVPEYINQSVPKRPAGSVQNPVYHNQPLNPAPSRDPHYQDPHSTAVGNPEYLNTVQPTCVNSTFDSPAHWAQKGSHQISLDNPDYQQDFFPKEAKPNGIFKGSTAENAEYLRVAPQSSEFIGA
# [10] = target: T10, ROS (Homo sapiens, UniProt P08922); experiment: Selectivity panel ROS; format: biochemical; conditions: 5 µM inhibitor
# T10 construct: purchased Life Technologies (Invitrogen SelectScreen); Dyrk1A, Dyrk2 and CK2α in-house or gifts
# [11] = target: T11, TrkB (Homo sapiens, UniProt Q16620); experiment: Selectivity panel TrkB; format: biochemical; conditions: 5 µM inhibitor
# T11 construct: purchased Life Technologies (Invitrogen SelectScreen); Dyrk1A, Dyrk2 and CK2α in-house or gifts
# T11 sequence (Q16620 32-822): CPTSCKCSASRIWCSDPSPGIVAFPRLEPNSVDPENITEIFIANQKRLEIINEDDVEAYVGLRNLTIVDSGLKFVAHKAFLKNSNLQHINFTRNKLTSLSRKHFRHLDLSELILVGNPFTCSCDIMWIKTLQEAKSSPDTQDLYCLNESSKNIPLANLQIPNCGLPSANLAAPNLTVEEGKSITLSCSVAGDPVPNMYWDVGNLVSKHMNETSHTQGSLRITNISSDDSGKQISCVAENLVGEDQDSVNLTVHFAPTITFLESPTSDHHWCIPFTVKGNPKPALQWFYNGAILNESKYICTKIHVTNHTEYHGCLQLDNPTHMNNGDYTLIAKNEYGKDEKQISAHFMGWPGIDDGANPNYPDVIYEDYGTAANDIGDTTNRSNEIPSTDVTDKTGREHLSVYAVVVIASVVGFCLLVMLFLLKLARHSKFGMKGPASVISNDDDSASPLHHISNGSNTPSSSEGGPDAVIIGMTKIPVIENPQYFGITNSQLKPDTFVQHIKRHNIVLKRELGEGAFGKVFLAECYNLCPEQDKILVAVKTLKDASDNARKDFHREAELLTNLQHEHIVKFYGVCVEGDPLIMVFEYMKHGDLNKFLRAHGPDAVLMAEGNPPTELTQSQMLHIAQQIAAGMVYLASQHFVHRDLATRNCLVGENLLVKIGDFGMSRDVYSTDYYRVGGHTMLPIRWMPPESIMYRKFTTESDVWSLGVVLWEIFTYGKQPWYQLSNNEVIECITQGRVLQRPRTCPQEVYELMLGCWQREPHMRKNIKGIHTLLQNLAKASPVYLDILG
# [12] = Metabolic Stability Assay; conditions: male, Sprague-Dawley, rat, liver microsomes
smiles,measurement,setting,value
"c1cncc(-c2csc(-c3cnco3)c2)c1 [Compound 33, 3-[5-(1,3-oxazol-5-yl)thiophen-3-yl]pyridine]",IC50,[1],800 nM and 810 nM
same,inhibition at 5 µM,[1],84%
same,IC50,[2],1000 nM
same,inhibition at 5 µM,[2],83%
same,IC50,[3],1340 nM and 1300 nM
same,inhibition at 5 µM,[3],77%
same,inhibition at 5 µM,[4],0%
same,inhibition at 5 µM,[5],7%
same,inhibition at 5 µM,[6],10%
same,inhibition at 5 µM,[7],0%
same,inhibition at 5 µM,[8],0%
same,inhibition at 5 µM,[9],0%
same,inhibition at 5 µM,[10],2%
same,inhibition at 5 µM,[11],23%
same,melting point,,86 to 87 °C
"c1cncc(-c2cc(-c3cncs3)cs2)c1 [Compound 29, 3-[4-(1,3-thiazol-5-yl)thiophen-2-yl]pyridine]",IC50,[3],400 nM and 430 nM
same,inhibition at 5 µM,[3],93%
same,inhibition at 5 µM,[4],0%
same,inhibition at 5 µM,[5],4%
same,inhibition at 5 µM,[6],0%
same,inhibition at 5 µM,[7],0%
same,inhibition at 5 µM,[8],0%
same,inhibition at 5 µM,[9],0%
same,inhibition at 5 µM,[10],0%
same,inhibition at 5 µM,[11],24%
same,melting point,,114 to 115 °C
same,CLhep predicted at 0.5 µM,[12],49 mL/min/kg
same,half-life at 0.5 µM,[12],27 min
"Cn1cc(-c2csc(-c3cccnc3)c2)cn1 [Compound 30, 3-[4-(1-methyl-1H-pyrazol-4-yl)thiophen-2-yl]pyridine]",IC50,[2],400 nM and 410 nM
same,inhibition at 5 µM,[2],100%
same,Kd,[2],148 nM
same,IC50,[3],200 nM and 190 nM
same,inhibition at 5 µM,[3],100%
same,percentage of inhibition CK2α,[4]; at 5 µM,10%
same,inhibition at 5 µM,[4],9.5%
same,inhibition at 5 µM,[5],8%
same,inhibition at 5 µM,[6],17%
same,inhibition at 5 µM,[7],-8%
same,inhibition at 5 µM,[8],-1%
same,inhibition at 5 µM,[9],5%
same,inhibition at 5 µM,[10],4%
same,inhibition at 5 µM,[11],-5%
same,melting point,,119 to 120 °C
same,CLhep predicted at 0.5 µM,[12],34 mL/min/kg
same,half-life at 0.5 µM,[12],53 min
"c1cncc(-c2csc(-c3cncnc3)c2)c1 [Compound 41, 5-[4-(pyridin-3-yl)thiophen-2-yl]pyrimidine]",IC50,[1],900 nM and 880 nM
same,inhibition at 5 µM,[1],85%
same,IC50,[2],1800 nM
same,inhibition at 5 µM,[2],70%
same,IC50,[3],3500 nM and 3400 nM
same,inhibition at 5 µM,[3],57%
same,inhibition at 5 µM,[4],0%
same,inhibition at 5 µM,[5],9%
same,inhibition at 5 µM,[6],14%
same,inhibition at 5 µM,[7],0%
same,inhibition at 5 µM,[8],0%
same,inhibition at 5 µM,[9],4%
same,inhibition at 5 µM,[10],0%
same,inhibition at 5 µM,[11],22%
same,melting point,,173 to 174 °C
"c1cncc(-c2csc(-c3cncs3)c2)c1 [Compound 48, 3-[5-(1,3-thiazol-5-yl)thiophen-3-yl]pyridine]",IC50,[1],100 nM
same,inhibition at 5 µM,[1],97%
same,Kd,"[1]; calculated with Cheng-Prussoff equation, KM ATP 64 µM",39 nM
same,IC50,[2],70 nM
same,inhibition at 5 µM,[2],100%
same,Kd,[2],26 nM
same,IC50,[3],40 nM
same,inhibition at 5 µM,[3],100%
same,inhibition at 5 µM,[4],0%
same,inhibition at 5 µM,[5],9%
same,inhibition at 5 µM,[6],25%
same,inhibition at 5 µM,[7],0%
same,inhibition at 5 µM,[8],1%
same,inhibition at 5 µM,[9],15%
same,inhibition at 5 µM,[10],0%
same,inhibition at 5 µM,[11],0%
same,melting point,,69 to 70 °C
same,CLhep predicted at 0.5 µM,[12],47 mL/min/kg
same,half-life at 0.5 µM,[12],31 min
